Measured values taken from US12023399B2, “Cleansing composition with pyrrolidone carboxylic acid” (The Procter & Gamble Company, priority 2021, dated 2024).

System: Staphylococcus aureus (ATCC #6538)
Assay: S. aureus growth on pH adjusted TSA plates
Format: cell-based
Conditions: TSA plate pH 4.51 supplemented with 0.03% PCA, ~48 hrs at 33° C.; pH 5.99 plate without PCA shows colonies
Procedure: The Staphylococcus aureus (ATCC #6538) bacteria cultures used herein can be created from commercially available Trypticase Soy Agar (TSA) plates that are streaked and incubated 17-20 hours at 35° C.±2° C. The resulting bacteria are grown in a conventional saline buffer solution with the optical density adjusted to deliver 10^9 to 10^10 cfu/mL. A sample of the bulk culture can be diluted 1:1,000,000 in saline buffer. 100 ul of the dilute bacteria culture is streak plated onto a TSA plate that is pH adjusted to pH 5.99 or onto a TSA plate that is pH adjusted to pH 4.51 and supplemented with 0.03% PCA. Plates are incubated ˜48 hrs at 33° C.±2° C. and photographed for growth as shown in FIGS. 2A (with pH 5.99) and 2B (with pH 4.5 and 0.03% PCA).

`O=C1CC[C@@H](C(=O)O)N1` [PCA, pyrrolidone carboxylic acid] was tested, and the “S. aureus colonies after incubation” value was “no colonies are observed”.
